{"source": "patent US7842671B1", "about": "“Peptidomimetic inhibitors of STAT activity and uses thereof” (University of South Florida, priority 2003, dated 2010)", "key": {"Stat5:Stat5": {"target": "Stat5:Stat5", "assay": "EMSA of Stat5:Stat5 DNA-binding in nuclear extracts", "type": "biochemical, mouse", "settings": "nuclear extracts pre-incubated 30 min, mean and SD of at least 3 assays, read-out: IC50 values against STAT Dimers, Stat5:Stat5", "procedure": "(§1) Nuclear extract preparation and gel shift assays. Nuclear extracts were prepared from cell lines and used for electrophoretic mobility shift assay (EMSA) as previously described (Garcia, R. et al. (1997); Yu, C. L. et al. (1995); Turkson, J. et al. (1998)). In some cases, cells were pre-treated with peptidomimetics for the indicated times (12-48 h) prior to harvesting for nuclear extract preparation. In other studies, nuclear extracts were pre-incubated with peptidomimetics for 30 min at room temperature prior to incubation with radiolabeled probe. The ^32P-radiolabeled oligonucleotide probes used are hSIE (high affinity sis-inducible element, m67 variant, 5′-[…]-3′) (SEQ ID NO. 3) that binds both Stat1 and Stat3 (Garcia, R. et al. (1997); Wagner B. J. et al. (1990)) and MGFe (mammary gland factor element from the bovine β-casein gene promoter, 5′-[…]-3′) (SEQ ID NO. 4) that binds Stat1 and Stat5 (Gouilleux, F. et al. (1995); Seidel, H. M. et al. (1995)).\n(§2) Peptidomimetics of the invention can be prepared by replacing prolyl or alanyl residue at the peptide bond that is N-terminal to the phosphotyrosine (Y*) of a peptide such as PY*L or AY*L with an organic substituent such as an optionally substituted aryl or heteroaryl group. The activities of STATs were measured in nuclear extracts (prepared from epidermal growth factor (EGF)-stimulated fibroblasts) as DNA-bound protein complexes by electrophoretic mobility shift assay (EMSA). STAT-DNA complexes detected include Stat3:Stat3 homodimers (upper band), Stat1:Stat3 heterodimers (intermediate band) and Stat1:Stat1 homodimers (lower band) (FIG. 1A) when a ^32P-labeled hSIE oligonucleotide probe is used, or Stat5:Stat5 (upper band) and Stat1:Stat1 dimers (lower band) (FIG. 1B) when ^32P-labeled MGFe is used as a probe."}, "Stat3": {"target": "Stat3 (Mus musculus, UniProt P42227)", "sequence (P42227 whole entry)": "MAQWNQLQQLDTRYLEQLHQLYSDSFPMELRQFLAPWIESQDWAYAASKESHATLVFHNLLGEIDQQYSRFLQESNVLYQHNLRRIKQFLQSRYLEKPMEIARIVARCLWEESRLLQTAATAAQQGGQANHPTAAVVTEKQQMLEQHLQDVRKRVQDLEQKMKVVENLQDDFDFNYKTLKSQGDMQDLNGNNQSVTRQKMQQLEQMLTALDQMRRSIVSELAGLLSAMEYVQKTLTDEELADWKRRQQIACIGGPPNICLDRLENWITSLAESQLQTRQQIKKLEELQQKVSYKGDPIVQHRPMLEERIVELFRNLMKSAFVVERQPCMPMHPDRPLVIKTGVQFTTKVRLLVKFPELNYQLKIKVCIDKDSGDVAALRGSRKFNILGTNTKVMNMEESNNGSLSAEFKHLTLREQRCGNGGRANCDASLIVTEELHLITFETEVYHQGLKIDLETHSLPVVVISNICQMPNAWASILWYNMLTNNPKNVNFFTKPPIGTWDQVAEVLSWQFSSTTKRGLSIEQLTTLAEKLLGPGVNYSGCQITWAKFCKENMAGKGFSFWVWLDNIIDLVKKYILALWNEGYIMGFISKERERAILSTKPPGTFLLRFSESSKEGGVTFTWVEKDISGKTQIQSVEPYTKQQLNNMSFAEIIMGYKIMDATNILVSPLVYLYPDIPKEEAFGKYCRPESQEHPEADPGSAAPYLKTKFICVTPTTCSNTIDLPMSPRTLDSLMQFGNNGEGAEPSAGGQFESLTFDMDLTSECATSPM", "assay": "EMSA of Stat3 DNA-binding activity in nuclear extracts (hSIE probe)", "type": "biochemical", "parameters": "nuclear extracts (prepared from epidermal growth factor (EGF)-stimulated fibroblasts); endogenous in cells; host or cells: NIH3T3 fibroblasts stimulated with EGF", "settings": "EMSA", "procedure": "as §1\nPeptidomimetics of the invention can be prepared by replacing prolyl or alanyl residue at the peptide bond that is N-terminal to the phosphotyrosine (Y*) of a peptide such as PY*L or AY*L with an organic substituent such as an optionally substituted aryl or heteroaryl group. The activities of STATs were measured in nuclear extracts (prepared from epidermal growth factor (EGF)-stimulated fibroblasts) as DNA-bound protein complexes by electrophoretic mobility shift assay (EMSA).\nFrom densitometric analysis of band intensities, the IC50 values (concentration of peptidomimetic at which DNA-binding activity is reduced by 50%), which are reported in Table 3, were determined."}, "NIH3T3/v-Src": {"tested_on": "NIH3T3/v-Src", "assay": "Apo-BrdU labeling and flow cytometry for apoptotic cells", "type": "cell-based, mouse", "settings": "48 h", "procedure": "(§3) Cell proliferation, soft-agar growth and Apo-BrdU labeling studies. Proliferating fibroblasts and human tumor cells were counted by phase-contrast microscopy for viable cells (using tyrpan blue exclusion). Colony formation assays in six-well dishes and quantification of colonies by iodonitrotetrazolium violet have been previously described (Turkson, J. et al. (1999)). Treatment of cells with inhibitors was initiated 1 day after seeding cells by adding 75 μl of medium with or without inhibitor, and repeated every two to three days. Apoptosis was measured by Apo-BrdU labeling and following the supplier's (PharMingen; San Diego, Calif.) instructions.\n(§4) Because one of the functions of Stat3 is to protect transformed or tumor cells from apoptosis (Catlett-Falcone, R. et al. (1999b); Epling-Burnette, P. K. et al. (2001); Grandis, J. R. et al. (2000); Bowman, T. et al. (2000b); Bromberg, J. F. et al. (1999)), the ability of peptidomimetics of the invention (and PY*LKTK-MTS for comparison) (SEQ ID NO. 1) to induce apoptosis in Stat3-dependent transformed fibroblasts was evaluated. Viral Src-transformed NIH3T3/v-Src fibroblasts were treated with or without compounds for 48 h. Treated cells were then labeled with Apo-BrdU (PharMingen; San Diego, Calif.) for detection of DNA breaks."}, "NIH3T3": {"tested_on": "NIH3T3", "assay": "Apo-BrdU labeling and flow cytometry for apoptotic cells", "type": "cell-based, mouse", "settings": "NIH3T3, 1 mM, 48 h, flow cytometry", "procedure": "as §3, §4"}, "Stat1:Stat1": {"target": "T1, Stat1:Stat1 (Mus musculus, UniProt P42225)", "T1 construct": "nuclear extracts (prepared from epidermal growth factor (EGF)-stimulated fibroblasts); endogenous in cells; host or cells: NIH3T3 fibroblasts stimulated with EGF", "T1 sequence (P42225 1-749)": "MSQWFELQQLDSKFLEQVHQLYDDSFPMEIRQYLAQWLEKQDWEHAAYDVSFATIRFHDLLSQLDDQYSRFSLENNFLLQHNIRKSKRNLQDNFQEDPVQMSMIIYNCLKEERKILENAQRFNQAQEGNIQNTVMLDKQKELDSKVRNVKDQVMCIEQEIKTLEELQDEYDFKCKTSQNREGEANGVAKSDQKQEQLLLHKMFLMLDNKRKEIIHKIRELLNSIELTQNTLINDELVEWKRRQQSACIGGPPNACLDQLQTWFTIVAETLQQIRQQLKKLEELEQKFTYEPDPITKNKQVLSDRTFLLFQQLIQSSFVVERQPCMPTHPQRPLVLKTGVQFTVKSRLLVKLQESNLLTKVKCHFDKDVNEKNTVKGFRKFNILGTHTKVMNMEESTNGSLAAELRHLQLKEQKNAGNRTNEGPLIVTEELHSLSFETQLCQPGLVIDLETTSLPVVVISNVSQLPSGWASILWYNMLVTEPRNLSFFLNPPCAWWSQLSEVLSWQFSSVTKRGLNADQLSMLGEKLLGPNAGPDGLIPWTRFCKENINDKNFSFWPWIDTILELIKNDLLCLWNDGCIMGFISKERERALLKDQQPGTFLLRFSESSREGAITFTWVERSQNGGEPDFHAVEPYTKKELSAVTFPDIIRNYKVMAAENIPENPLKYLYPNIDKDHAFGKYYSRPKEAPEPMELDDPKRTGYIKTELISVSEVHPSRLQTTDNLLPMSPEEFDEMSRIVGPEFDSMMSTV", "assay": "EMSA of Stat1:Stat1 DNA-binding in nuclear extracts", "type": "biochemical", "procedure": "as §1, §2"}, "MDA-MB-435": {"tested_on": "MDA-MB-435", "type": "cell-based, human", "settings": "1 mM, MDA-MB-435, four days", "procedure": "as §3\nStat3 has an essential role in cell proliferation, and constitutively-active Stat3 is required for growth of transformed and tumor cells that harbor aberrant Stat3 signaling. Studies were performed to determine the effects of the peptidomimetic-mediated inhibition of Stat3 on cell proliferation using trypan blue exclusion for viable cell counts."}}, "data": [{"smiles": "CC(C)CC(NC(=O)C(Cc1ccc(OP(=O)(O)O)cc1)NC(=O)c1ccc(C#N)cc1)C(=O)O", "note": "(centres unmarked) [ISS 610]", "values": [{"measurement": "IC50", "setting": "Stat5:Stat5", "value": 285, "unit": "µM"}, {"measurement": "increase in potency in inhibiting Stat3 DNA-binding activity compared to tripeptides PY*L or AY*L", "setting": "Stat3; in vitro", "value": 5, "unit": "fold"}, {"measurement": "effect on Stat3 DNA-binding activity in vitro (in words)", "setting": "Stat3; nuclear extracts", "value": "potent disrupters of active Stat3"}, {"measurement": "percent of apoptotic cells", "setting": "NIH3T3/v-Src; NIH3T3/v-Src, 1 mM, Apo-BrdU, flow cytometry", "value": 21.4, "unit": "%"}, {"measurement": "incorporated BrdUTP compared to controls (in words)", "setting": "NIH3T3/v-Src; Src-transformed fibroblasts", "value": "dramatic increases in incorporated BrdUTP"}, {"measurement": "percent of apoptotic cells", "setting": "NIH3T3", "value": 0.3, "unit": "%"}, {"measurement": "IC50", "setting": "Stat1:Stat1", "value": 310, "unit": "µM"}, {"measurement": "cell proliferation", "setting": "MDA-MB-435", "value": "significantly suppresses proliferation"}]}]}
